Measurements as given in patent publication US20210147455A1 (SHAANXI SYNTHETIC PHARMACEUTICAL CO., LTD., priority 2018, published 2021).
Values after ≈ are worked out from the molar mass of the structure shown. Where two headings read alike, the source gives them in different places.

How the values were obtained:
[1] = Hygroscopicity study (Chinese Pharmacopoeia 2015, 9103); format: physicochemical; details: for Hygroscopic weight gain: 25° C.±1° C., saturated ammonium chloride solution, 24 hours; for Conclusion (hygroscopicity): after 24 hours
Protocol: Test method: • 1. A dried glass weighing bottle with stopper (having an outer diameter of 50 mm and a height of 15 mm) was placed in a thermostatic drier (a saturated ammonium chloride solution was placed on the lower part of the thermostatic drier) at an appropriate temperature of 25° C.±1° C. on the day earlier before the test, and the weight (m1) of weighing bottle was precisely weighed. • 2. An appropriate amount of test sample was taken and spread in the weighing bottle, and the thickness of the test sample was controlled to about 1 mm, and the weight (m2) was precisely weighed. • 3. The weighing bottle was opened and was placed, together with the bottle cap, under the above mentioned constant temperature and humidity condition for 24 hours. • 4. The weighing bottle was capped and precisely weighed to obtain the weight (m3).
Description of hygroscopicity characterization and delimitation of hygroscopicity weight gain: Deliquescence: enough moisture is absorbed to form a liquid. […] Slightly hygroscopic: hygroscopic weight gain is less than 2% but not less than 0.2%. Not or hardly hygroscopic: hygroscopic weight gain is less than 0.2%.

[2] = Stability experiments under 25° C.±2° C. and 65% R.H±5% R.H; details: 25° C./65% R.H
Text: • 1. […] The results are shown in detail in the following table.

[3] = Stability experiments under 40° C.±2° C. and 75% R.H±5% R.H (accelerated test); format: physicochemical; details: 40° C./75% R.H
[4] = Urine sample
Protocol: The mice were purchased from Beijing Weili Tonghua Experimental Animal Technology Co., Ltd. Based on the weight, the mice were randomly divided into 5 groups, with each group including 3 animals.
Before the pharmacokinetic test, the mice were fasted for 16 hours. […] 200 μl of blood was collected at preset timepoint by jugular vein puncture after administration. For the animal group subjected to intravenous administration, blood was collected at minute 0, minute 15, minute 30, hour 1, hour 2, hour 4, hour 8 and hour 24 after administration. Urine was collected at hour 2, hour 4, hour 8, hour 12 and hour 24. The blood was collected in a sample tube containing EDTA and blood sample was immediately centrifuged at 4000 rpm at 4° C. for 5 minutes. The plasma was transferred to another sample tube and stored at minus 20° C.
The following method and apparatus were used:
Mobile phase: 100% of acetonitrile (3 mM ammonium acetate) and 100% of water (3 mM ammonium acetate) Quantitation method: internal standard method

[5] = in vivo; details: female, mouse, 1 mg/kg
[6] = Solubility study
[7] = background statement; cited from earlier work
[8] = day 5, High temperature of 40° C.
[9] = day 10, High temperature of 40° C.

## CC[C@@H]([C@H](C)OP(=O)(O)O)n1ncn(-c2ccc(N3CCN(c4ccc(OC[C@@H]5CO[C@@](Cn6cncn6)(c6ccc(F)cc6F)C5)cc4)CC3)cc2)c1=O [Example 1, Posaconazole Phosphate Monocholinate]
[1]
  Hygroscopic weight gain: 0.12%
  Conclusion (hygroscopicity): No hygroscopicity
[2]; up to month 24
  stability (conclusion in words): higher than that of the compounds in Comparative examples 1˜11
[2]; month 0
  Content: 99.87%
  Description: White
  Related substance: 0.13%
[2]; month 3
  Content: 99.87%
  Description: White
  Related substance: 0.13%
[2]; month 6
  Content: 99.87%
  Description: White
  Related substance: 0.13%
[2]; month 9
  Content: 99.85%
  Description: White
  Related substance: 0.15%
[2]; month 12
  Content: 99.84%
  Description: White
  Related substance: 0.16%
[2]; month 24
  Content: 99.80%
  Description: White
  Related substance: 0.20%
[3]; month 0
  Content: 99.87%
  Description: White
  Related substance: 0.13%
[3]; month 1
  Content: 99.87%
  Description: White
  Related substance: 0.13%
[3]; month 2
  Content: 99.86%
  Description: White
  Related substance: 0.14%
[3]; month 3
  Content: 99.85%
  Description: White
  Related substance: 0.15%
[3]; month 6
  Content: 99.84%
  Description: White
  Related substance: 0.16%
Day 0
  Content: 99.87%
  Description: White
  Related substance: 0.13%
Day 5, High humidity of 92.5%
  Content: 99.86%
  Description: White
  Related substance: 0.14%
[8]
  Content: 99.87%
  Description: White
  Related substance: 0.13%
Day 5, Illumination of 4500LX
  Content: 99.87%
  Description: White
  Related substance: 0.13%
Day 10, High humidity of 92.5%
  Content: 99.86%
  Description: White
  Related substance: 0.14%
[9]
  Content: 99.85%
  Description: White
  Related substance: 0.15%
Day 10, Illumination of 4500LX
  Content: 99.86%
  Description: White
  Related substance: 0.14%
[4]; 0~2 h, 1 mg/kg intravenous
  Concentration of the compound in Example 1: 149.1 ng/mL
[4]; 2~4 h
  Concentration of the compound in Example 1: 641.6 ng/mL
[4]; 4~8 h
  Concentration of the compound in Example 1: 973.0 ng/mL
[4]; 8~12 h
  Concentration of the compound in Example 1: 716.5 ng/mL
[4]; 12~24 h
  Concentration of the compound in Example 1: 400.9 ng/mL
[5]; plasma, iv
  concentration at 0.25 h: 5560 ng/mL
  concentration at 0.5 h: 7040 ng/mL
  concentration at 1 h: 7630 ng/mL
  concentration at 2 h: 8270 ng/mL
  concentration at 4 h: 7520 ng/mL
  concentration at 8 h: 7780 ng/mL
  concentration at 24 h: 7920 ng/mL
[5]; urine, intravenous
  concentration at 24 h: 0 ng/mL
[6]; organic solvent or mixture, Solubility, Methanol, in methanol
  solubility: 35000 µg/mL
[6]; water, Solubility, in water
  solubility: 82000 µg/mL

## sulfobutyl ether-β-cyclodextrin
[7]
  preclinical toxicology finding: causes vacuolization of the urothelial cells and activation of the macrophages in the liver and lung

## CC[C@@H]([C@H](C)OP(=O)(O)O)n1ncn(-c2ccc(N3CCN(c4ccc(OC[C@@H]5CO[C@@](Cn6cncn6)(c6ccc(F)cc6F)C5)cc4)CC3)cc2)c1=O [Example 3, Posaconazole Phosphate Monocholinate Pentahydrate]
[1]
  Hygroscopic weight gain: 0.15%
  Conclusion (hygroscopicity): No hygroscopicity
[2]; month 0
  Content: 99.37%
  Description: White
  Related substance: 0.13%
[2]; month 3
  Content: 99.87%
  Description: White
  Related substance: 0.13%
[2]; month 6
  Content: 99.87%
  Description: White
  Related substance: 0.13%
[2]; month 9
  Content: 99.84%
  Description: White
  Related substance: 0.16%
[2]; month 12
  Content: 99.84%
  Description: White
  Related substance: 0.16%
[2]; month 24
  Content: 99.79%
  Description: White
  Related substance: 0.21%
[3]; month 0
  Content: 99.87%
  Description: White
  Related substance: 0.13%
[3]; month 1
  Content: 99.87%
  Description: White
  Related substance: 0.13%
[3]; month 2
  Content: 99.87%
  Description: White
  Related substance: 0.13%
[3]; month 3
  Content: 99.86%
  Description: White
  Related substance: 0.14%
[3]; month 6
  Content: 99.85%
  Description: White
  Related substance: 0.15%
Day 0
  Content: 99.87%
  Description: White
  Related substance: 0.13%
Day 5, High humidity of 92.5%
  Content: 99.86%
  Description: White
  Related substance: 0.14%
[8]
  Content: 99.87%
  Description: White
  Related substance: 0.13%
Day 5, Illumination of 4500LX
  Content: 99.87%
  Description: White
  Related substance: 0.13%
Day 10, High humidity of 92.5%
  Content: 99.86%
  Description: White
  Related substance: 0.14%
[9]
  Content: 99.85%
  Description: White
  Related substance: 0.15%
Day 10, Illumination of 4500LX
  Content: 99.86%
  Description: White
  Related substance: 0.14%

## CC[C@@H]([C@H](C)O)n1ncn(-c2ccc(N3CCN(c4ccc(OC[C@@H]5CO[C@@](Cn6cncn6)(c6ccc(F)cc6F)C5)cc4)CC3)cc2)c1=O [Posaconazole]
[6]; isopropanol, organic solvent or mixture
  solubility: 100 µg/mL (≈ 143 µM)
[6]; methanol, organic solvent or mixture
  solubility: 60 µg/mL (≈ 85.6 µM)
[6]; water
  solubility: 50 µg/mL (≈ 71.3 µM)
